Source: patent US7507727B2, “Substituted quinobenzoxazine analogs and methods of using thereof” (Cylene Pharmaceuticals, Inc., priority 2003, dated 2009)

Each compound was assayed against c-Myc template DNA (c-myc quadruplex) (assay: Quadruplex binding / stop assay (Taq polymerase arrest, capillary electrophoresis)). Settings: read-out: S DATA; Table 1D, stop assay data.

Row | IC50 [µM] | Compound
1 | > 15 | CC(C)N1CCN(c2c(F)cc3c(=O)c(C(=O)N4CCC(N5CCCC5)CC4)cn4c3c2Oc2ccccc2-4)CC1 [compound 1569]
2 | > 15 | CC(C)N1CCN(c2c(F)cc3c(=O)c(C(=O)NCCN4CCCC4)cn4c3c2Oc2ccccc2-4)CC1 [compound 1566]
3 | 0.375 | CN1CCCC1CCNC(=O)c1cn2c3c(c(NCC4CC(C)(C)N(O)C4(C)C)c(F)cc3c1=O)Oc1cc3ccccc3cc1-2 (stereo not shown) [compound 1668]
4 | > 15 | CC(C)N1CCN(c2c(F)cc3c(=O)c(C(=O)NCCN4CCCC4)cn4c3c2Oc2ccc(C#N)cc2-4)CC1 [compound 1796]
5 | > 15 | CN1CCN(CCCNc2c(F)cc3c(=O)c(C(=O)NCCC4CCCN4C)cn4c3c2Oc2ccccc2-4)CC1 (stereo not shown) [compound 1576]
6 | > 15 | CN1CCN(CCCNc2c(F)cc3c(=O)c(C(=O)NCCN4CCCC4)cn4c3c2Oc2ccccc2-4)CC1 [compound 1577]
7 | 3.6 | CN1CCCC1CCNC(=O)c1cn2c3c(c(N4CCC(c5cnccn5)C4)c(F)cc3c1=O)Oc1cc(Cl)ccc1-2 (stereo not shown) [compound 1765]
8 | 1.75 | CN1CCCC1CCNC(=O)c1cn2c3c(c(NCc4ccccc4N4CCOCC4)c(F)cc3c1=O)Oc1cc3ccccc3cc1-2 (stereo not shown) [compound 1511]
9 | > 15 | NC1CCN(c2c(F)cc3c(=O)c(C(=O)NCCc4c[nH]c5ccccc45)cn4c3c2Oc2cc3ccccc3cc2-4)C1 (stereo not shown) [compound 1696]
10 | 1.75 | CN1CCCC1CCNc1ccc2c(=O)c(C(=O)NCCN3CCOCC3)cn3c2c1Oc1cc2ccccc2cc1-3 (stereo not shown) [compound 1527]
11 | > 15 | CC(C)N1CCN(c2c(F)cc3c(=O)c(C(=O)NCCCN4CCOCC4)cn4c3c2Oc2ccccc2-4)CC1 [compound 1561]
12 | 1.75 | CN1CCCC1CCNc1ccc2c(=O)c(C(=O)NC3CC(C)(C)NC(C)(C)C3)cn3c2c1Oc1cc2ccccc2cc1-3 (stereo not shown) [compound 1525]
13 | 10 | COCC(=O)N1CCN(c2c(F)cc3c(=O)c(C(=O)NCCN4CCCC4)cn4c3c2Oc2cc(Cl)ccc2-4)CC1 [compound 1825]
14 | 3.3 | CN1CCCC1CCNC(=O)c1cn2c3c(c(F)c(F)cc3c1=O)Oc1cc3ccccc3cc1-2 (stereo not shown) [compound 1739]
15 | 1.75 | CC1(C)CC(NC(=O)c2cn3c4c(c(N5CCC(NC(=O)OC(C)(C)C)C5)ccc4c2=O)Oc2cc4ccccc4cc2-3)CC(C)(C)N1 (stereo not shown) [compound 1537]
16 | > 15 | CN(C)CCCCNC(=O)c1cn2c3c(c(NCCN4CCOCC4)ccc3c1=O)Oc1cc3ccccc3cc1-2 [compound 1550]

Row | IC50 [µM] | Compound
17 | 1.75 | CN(CCCNc1c(F)cc2c(=O)c(C(=O)NCCC3CCCN3C)cn3c2c1Oc1cc2ccccc2cc1-3)c1ccccc1 (stereo not shown) [compound 1503]
18 | > 15 | O=C(NCCCN1CCOCC1)c1cn2c3c(c(NCCN4CCOCC4)ccc3c1=O)Oc1cc3ccccc3cc1-2 [compound 1548]
19 | > 15 | CN1CCCC1CCNC(=O)c1cn2c3c(c(NCC(C)(C)CO)c(F)cc3c1=O)Oc1cc3ccccc3cc1-2 (stereo not shown) [compound 1744]
20 | 1.75 | COc1ccc(CCNc2c(F)cc3c(=O)c(C(=O)NCCC4CCCN4C)cn4c3c2Oc2cc3ccccc3cc2-4)cc1 (stereo not shown) [compound 1663]
21 | 0.75 | CN(C)CCCCNC(=O)c1cn2c3c(c(NCCC4CCCN4C)ccc3c1=O)Oc1cc3ccccc3cc1-2 (stereo not shown) [compound 1526]
22 | 0.75 | CN1CCCC1CCNC(=O)c1cn2c3c(c(N4CCC(c5cccnc5)C4)c(F)cc3c1=O)Oc1cc3ccccc3cc1-2 (stereo not shown) [compound 1508]
23 | 3 | CCN(CC)CCCC(C)NC(=O)c1cn2c3c(c(N4CCC(c5cnccn5)C4)ccc3c1=O)Oc1ccccc1-2 (stereo not shown) [compound 1721]
24 | > 15 | CN1CCCC1CCNC(=O)c1cn2c3c(c(NCC4OCCO4)c(F)cc3c1=O)Oc1cc3ccccc3cc1-2 (stereo not shown) [compound 1745]
25 | > 15 | O=C(NCCN1CCOCC1)c1cn2c3c(c(N4CCC(c5cnccn5)C4)c(F)cc3c1=O)Oc1ccc(Cl)cc1-2 (stereo not shown) [compound 1789]
26 | > 15 | CN1CCN(CCCNc2c(F)cc3c(=O)c(C(=O)N4CCC(NC(=O)OC(C)(C)C)C4)cn4c3c2Oc2ccccc2-4)CC1 (stereo not shown) [compound 1574]
27 | 1 | N=C(N)NCCCCNC(=O)c1cn2c3c(c(NCCCN4CCOCC4)c(F)cc3c1=O)Oc1cc3ccccc3cc1-2 [compound 1650]
28 | 10 | CC(C)C(=O)N1CCN(c2c(F)cc3c(=O)c(C(=O)NCCN4CCCC4)cn4c3c2Oc2cc(Cl)ccc2-4)CC1 [compound 1823]
29 | 0.75 | CN(C)CCCCNC(=O)c1cn2c3c(c(NCCCN4CCN(C)CC4)ccc3c1=O)Oc1cc3ccccc3cc1-2 [compound 1555]
30 | 9.7 | CC(CNc1c(F)cc2c(=O)c(C(=O)NCCC3CCCN3C)cn3c2c1Oc1cc2ccccc2cc1-3)Oc1ccccn1 (stereo not shown) [compound 1750]
31 | > 15 | CN1CCN(CCCNC(=O)c2cn3c4c(c(NCCN5CCCC5)c(F)cc4c2=O)Oc2ccccc2-3)CC1 [compound 1594]
32 | 9.8 | O=C(NCCN1CCCC1)c1cn2c3c(c(N4CCN(Cc5ccsc5)CC4)c(F)cc3c1=O)Oc1cc(Cl)ccc1-2 [compound 1831]

Same assay, conditions: read-out: Stop Data c-Myc μM; concentration at which 50% of the DNA was arrested (arrested:full-length 1:1)

Row | IC50 [µM] | Compound
33 | 0.75 | O=C(O)c1cn2c3cc4oc5cc([N+](=O)[O-])ccc5[nH]c4cc3oc3c(NCCCN4CCOCC4)c(F)cc(c1=O)c32 [compound 18]
34 | 1.75 | CN(C)CCCCNc1c(F)cc2c(=O)c(C(=O)N3CC[C@H](N)C3)cn3c4cc5c(cc4oc1c23)c(=O)c1ccccc15 [compound 217]
35 | 1.75 | O=C(NCCN1CCCC1)c1cn2c3c(c(NCCCN4CCOCC4)ccc3c1=O)Oc1cc3ccccc3cc1-2 [compound 272]
36 | 0.75 | CN1CCC(NC(=O)c2cn3c4c(c(N5CCC(N)C5)c(F)cc4c2=O)Oc2cc4ccccc4cc2-3)CC1 (stereo not shown) [compound 467]
37 | 0.75 | CN1CCN(CCCNC(=O)c2cn3c4cc5c(cc4oc4c(NCCC6CCCN6C)c(F)cc(c2=O)c43)c(=O)c2ccccc25)CC1 (stereo not shown) [compound 426]
38 | 0.75 | CN1CCCC1CCNC(=O)c1cn2c3c(c(NCCCCN4CCCC4)c(F)cc3c1=O)Oc1cc3ccccc3cc1-2 (stereo not shown) [compound 440]
39 | 1.75 | CN1CCN(CCCNC(=O)c2cn3c4cc5c(=O)c6ccccc6c(=O)c5cc4oc4c(N5CCC(NC(=O)OC(C)(C)C)C5)c(F)cc(c2=O)c43)CC1 (stereo not shown) [compound 169]
40 | 2.5 | O=C(NCCCn1ccnc1)c1cn2c3c(c(NCCCn4ccnc4)c(F)cc3c1=O)Oc1cc3ccccc3cc1-2 [compound 40]
41 | 0.75 | CN1CCCC1CCNC(=O)c1cn2c3c(c(NC4CCCNC4)c(F)cc3c1=O)Oc1cc3ccccc3cc1-2 (stereo not shown) [compound 433]
42 | 0.75 | CN1CCCC1CCNC(=O)c1cn2c3cc4oc5cc([N+](=O)[O-])ccc5[nH]c4cc3oc3c(NCCCN4CCOCC4)c(F)cc(c1=O)c32 (stereo not shown) [compound 408]
43 | 1.75 | NC1CCN(c2c(F)cc3c(=O)c(C(=O)NCCCn4ccnc4)cn4c3c2Oc2cc3ccccc3cc2-4)C1 (stereo not shown) [compound 200]
44 | 0.375 | CN1CCCC1CCNc1c(F)cc2c(=O)c(C(=O)NCCCN3CCOCC3)cn3c4cc5oc6cc([N+](=O)[O-])ccc6[nH]c5cc4oc1c23 (stereo not shown) [compound 553]
45 | 0.75 | O=C(NCCN1CCOCC1)c1cn2c3cc4c(cc3oc3c(NCCCN5CCOCC5)c(F)cc(c1=O)c32)c(=O)c1ccccc14 [compound 425]
46 | 2.5 | CN1CCCC1CCNc1c(F)cc2c(=O)c(C(=O)N3CCC(N)C3)cn3c4cc5c(=O)c6ccccc6c(=O)c5cc4oc1c23 (stereo not shown) [compound 93]
47 | 1 | N=C(N)NCCCCNC(=O)c1cn2c3c(c(NCCN4CCCC4)c(F)cc3c1=O)Oc1cc3ccccc3cc1-2 [compound 334]
48 | 1.75 | COc1ccc2c(CCNc3c(F)cc4c(=O)c(C(=O)NCCC5CCCN5C)cn5c4c3Oc3cc4ccccc4cc3-5)c[nH]c2c1 (stereo not shown) [compound 288]

Row | IC50 [µM] | Compound
49 | 1.75 | CC(=O)N1CCN(C(=O)c2cn3c4c(c(N5CCC(N)C5)c(F)cc4c2=O)Oc2cc4ccccc4cc2-3)CC1 (stereo not shown) [compound 201]
50 | 1 | O=C(O)c1cn2c3cc4c(cc3oc3c(F)c(F)cc(c1=O)c32)c(=O)c1ccccc14 [compound 320]
51 | 1.75 | CN1CCN(CCCNc2c(F)cc3c(=O)c(C(=O)N4CCN(C)CC4)cn4c3c2Oc2cc3c(cc2-4)oc2ccccc23)CC1 [compound 154]
52 | 0.75 | CN1CCCC1CCNC(=O)c1cn2c3c(c(N4CCC(c5ccccn5)C4)c(F)cc3c1=O)Oc1cc3ccccc3cc1-2 (stereo not shown) [compound 442]
53 | 1.75 | N[C@H]1CCN(C(=O)c2cn3c4cc5c(cc4oc4c(NCCCN6CCOCC6)c(F)cc(c2=O)c43)c(=O)c2ccccc25)C1 [compound 216]
54 | 0.75 | NC1CCN(c2ccc3c(=O)c(C(=O)NCCCN4CCOCC4)cn4c3c2Oc2cc3ccccc3cc2-4)C1 (stereo not shown) [compound 457]
55 | 1.75 | CN1CCCC1CCNc1c(F)cc2c(=O)c(C(=O)NCCCN3CCOCC3)cn3c2c1Oc1cc2ccccc2cc1-3 (stereo not shown) [compound 122]
56 | 1.75 | Nc1c(F)c(F)c2c3c1c(=O)c(C(=O)O)cn3-c1cc3ccccc3cc1O2 [compound 13]
57 | 1.75 | CN(C)CCCCNc1ccc2c(=O)c(C(=O)NCCC3CCCN3C)cn3c2c1Oc1cc2ccccc2cc1-3 (stereo not shown) [compound 275]
58 | 2.5 | CN(C)c1ccc(NC(=O)c2cn3c4c(c(N5CC[C@@H](N)C5)c(F)cc4c2=O)Oc2c-3ccc3ccccc23)cc1 [compound 82]
59 | 1 | O=C(NCCCn1ccnc1)c1cn2c3c(c(NCCCN4CCOCC4)c(F)cc3c1=O)Oc1cc3c(cc1-2)-c1ccccc1C3 [compound 314]
60 | 1.75 | CN1CCCN(C(=O)c2cn3c4c(c(N5CCC(N)C5)c(F)cc4c2=O)Oc2cc4ccccc4cc2-3)CC1 (stereo not shown) [compound 197]
61 | 2.5 | CC(C)(C)OC(=O)N[C@@H]1CCN(C(=O)c2cn3c4c(c(NCCN5CCOCC5)c(F)cc4c2=O)Oc2cc4ccccc4cc2-3)C1 [compound 56]
62 | 1.75 | CC(C)(C)OC(=O)NC1CCN(c2c(F)cc3c(=O)c(C(=O)NCCc4cnc[nH]4)cn4c3c2Oc2cc3ccccc3cc2-4)C1 (stereo not shown) [compound 181]
63 | 5 | CN1CCCC1CCNC(=O)c1cn2c3c(c(NCC4CCCO4)c(F)cc3c1=O)Oc1cc3ccccc3cc1-2 (stereo not shown) [compound 1471]
64 | 0.64 | CN(C)CCCCNC(=O)c1cn2c3c(c(NCCCCN(C)C)c(F)cc3c1=O)Oc1c-2ccc2ccccc12 [compound 470]
